Consider three compounds from patent US11535643B2, “Macrolides with modified desosamine sugars and uses thereof” (President and Fellows of Harvard College, priority 2015, dated 2022).

In brackets after ≈: the same amount, converted by molar mass. Like-named read-outs stand apart in the source and are kept apart here.

What all share (format): cell-based
One assay concerns S. aureus. The experiment in a line: Broth dilution MIC determination (CLSI) against S. aureus strains. Particulars: Staphylococcus aureus. The procedure, abridged: (§1)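 MICs were determined by CLSI standard broth dilution against several strains per species, including multidrug-resistant and macrolide-resistant strains. Azithromycin and solithromycin served as control compounds.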
(In general: Dilution methods test growth across graded concentrations, often in twofold steps.)

The next assay has as its system S. pneumoniae. As to the kind of experiment: Broth dilution MIC determination (CLSI) against S. pneumoniae strains. Particulars: Streptococcus pneumoniae. The procedure, abridged:
as §1

A further assay deals with S. pyogenes. The experiment in a line: Broth dilution MIC determination (CLSI) against S. pyogenes strains. Conditions: Streptococcus pyogenes. The procedure, abridged:
as §1

Another assay concerns E. faecalis. As to the kind of experiment: Broth dilution MIC determination (CLSI) against E. faecalis strains. Conditions: Enterococcus faecalis. The procedure, abridged: as §1
The next assay deals with E. coli. As to the kind of experiment: Broth dilution MIC determination (CLSI) against E. coli strains. Conditions: Escherichia coli. The procedure, abridged:
as §1

The test system of another assay is A. baumannii. The experiment in a line: Broth dilution MIC determination (CLSI) against A. baumannii strains. Conditions: Acinetobacter baumannii. Summed up:
as §1

In the next assay the test system is K. pneumoniae. The experiment in a line: Broth dilution MIC determination (CLSI) against K. pneumoniae strains. Particulars: Klebsiella pneumoniae. The procedure, abridged:
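CLSI broth-dilution MICs across a panel including multidrug- and macrolide-resistant strains, with azithromycin and solithromycin as control compounds.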

A further assay concerns P. aeruginosa. As to the kind of experiment: Broth dilution MIC determination (CLSI) against P. aeruginosa strains. Particulars: Pseudomonas aeruginosa, ATCC27853; read-out: MIC P. aeruginosa ATCC27853. The procedure, abridged: as §1
The subject of a further assay is H. influenzae. The experiment in a line: Broth dilution MIC determination (CLSI) against H. influenzae strains. Conditions: Haemophilus influenzae. The text has this: Minimum inhibitory concentrations (MICs) for macrolides described herein have been determined for unique strains of S. aureus, S. pneumoniae, S. pyogenes, E. faecalis, E. coli, A. baumannii, K. pneumoniae, P. aeruginosa, and H. influenzae, including several multidrug-resistant strains, with a special focus on macrolide resistant mechanisms. Azithromycin and solithromycin were included as control compounds. CLSI standard procedures for broth dilution MIC determination were used. Data for exemplary compounds described herein is shown in Tables M1-M7 and in Tables N1-N4.

Where [1] appears, read: ATCC29213, ATCC29213, read-out: MIC S. aureus ATCC29213.
The mark [2] stands for this setting: MRSA / USA100, MRSA: USA100, read-out: MIC S. aureus MRSA: USA100.
The mark [3] stands for this setting: MRSA / USA300, MRSA: USA300, read-out: MIC S. aureus MRSA: USA300.
The mark [4] stands for this setting: USA600, USA600, GISA, read-out: MIC S. aureus USA600, GISA.
[5] abbreviates: read-out: MIC S. aureus erm A genotype.
Setting [6] is: ATCC49619, ATCC49619, read-out: MIC S. pneumoniae ATCC49619.
Where [7] appears, read: erm B + mef A genotype, read-out: MIC S. pneumoniae erm B + mef A genotype.
Where [8] appears, read: erm B + tet(M, O) genotype, read-out: MIC S. pneumoniae erm B + tet(M, O) genotype.
The mark [9] stands for this setting: read-out: MIC S. pneumoniae mef A genotype, mef A genotype.
Setting [10] is: read-out: MIC S. pneumoniae mef A genotype, mef A genotype, first of two such columns (c3).
Setting [11] is: ATCC19615, ATCC19615, read-out: MIC S. pyogenes ATCC19615.
Setting [12] is: macrolide-resistant, read-out: MIC S. pyogenes macrolide-resistant.
Setting [13] is: ATCC29212, ATCC29212, read-out: MIC E. faecalis ATCC29212.
[14] abbreviates: Vancomycin-resistant, read-out: MIC E. faecalis Vancomycin-resistant.
The mark [15] stands for this setting: ATCC25922, ATCC25922, read-out: MIC E. coli ATCC25922.
Setting [16] is: read-out: MIC E. coli NDM-1, NDM-1.
Where [17] appears, read: ATCC19606, ATCC19606, read-out: MIC A. baumannii ATCC19606.
Setting [18] is: imipenem-resistant, read-out: MIC A. baumannii imipenem-resistant.
[19] abbreviates: ATCC10031, ATCC10031, read-out: MIC K. pneumoniae ATCC10031.
[20] abbreviates: KPC-2, read-out: MIC K. pneumoniae KPC-2.
Where [21] appears, read: ATCC49247, ATCC49247, read-out: MIC H. influenzae ATCC49247.
Where [22] appears, read: erythro > 4, azithro 1, read-out: MIC H. influenzae erythro > 4, azithro 1.

For `CC[C@H]1OC(=O)[C@H](C)C(=O)[C@H](C)[C@@H](O[C@@H]2OC(CNC(=O)CN)CC(N(C)C)C2O)[C@](C)(OC)C[C@@H](C)CN[C@H](C)[C@H]2N(CCCCn3cc(-c4cccc(N)c4)nn3)C(=O)O[C@]12C` (stereo partly drawn) [FSM-21878], the MIC with S. aureus (setting [1]) is 32 µg/mL (≈ 35.6 µM); with S. aureus (setting [2]), greater than 32 µg/mL; with S. aureus (setting [3]), greater than 32 µg/mL; in the assay with S. aureus (setting [4]) it was greater than 32 µg/mL; with S. aureus (setting [5]), greater than 32 µg/mL; in the assay with S. pneumoniae (setting [6]) it was less than 0.0313 µg/mL. For the same compound, the MIC was 4 µg/mL in the assay with S. pneumoniae (setting [7]); less than 0.0313 µg/mL in the assay with S. pneumoniae (setting [8]); 8 µg/mL (≈ 8.89 µM) with S. pneumoniae (setting [9]); 0.5 µg/mL (≈ 0.555 µM) with S. pneumoniae (setting [10]); less than 0.0313 µg/mL in the assay on S. pyogenes (setting [11]); 4 µg/mL (≈ 4.44 µM) in the assay on S. pyogenes (setting [12]). Moreover, the MIC is 16 µg/mL (≈ 17.8 µM) in the assay on E. faecalis (setting [13]); greater than 32 µg/mL with E. faecalis (setting [14]); greater than 32 µg/mL with E. coli (setting [15]); greater than 32 µg/mL with E. coli (setting [16]); greater than 32 µg/mL in the assay on A. baumannii (setting [17]); greater than 32 µg/mL with A. baumannii (setting [18]). Also, the MIC was 16 µg/mL (≈ 17.8 µM) with K. pneumoniae (setting [19]); greater than 32 µg/mL in the assay with K. pneumoniae (setting [20]); greater than 32 µg/mL in the assay with P. aeruginosa; greater than 32 µg/mL with H. influenzae (setting [21]); 32 µg/mL (≈ 35.6 µM) with H. influenzae (setting [22]).
Turning to `CC[C@H]1OC(=O)[C@H](C)C(=O)[C@H](C)[C@@H](O[C@@H]2OC(CNC(=O)CNC(C)(C)C)CC(N(C)C)C2O)[C@](C)(OC)C[C@@H](C)CN[C@H](C)[C@H]2N(CCCCn3cc(-c4cccc(N)c4)nn3)C(=O)O[C@]12C` (stereo partly drawn) [FSM-21879], the MIC is 32 µg/mL (≈ 33.5 µM) in the assay with S. aureus (setting [1]); greater than 32 µg/mL with S. aureus (setting [2]); greater than 32 µg/mL with S. aureus (setting [3]); greater than 32 µg/mL in the assay with S. aureus (setting [4]); greater than 32 µg/mL in the assay on S. aureus (setting [5]); less than 0.0313 µg/mL in the assay on S. pneumoniae (setting [6]). Further, the MIC was 1 µg/mL with S. pneumoniae (setting [7]); less than 0.0313 µg/mL in the assay with S. pneumoniae (setting [8]); 4 µg/mL (≈ 4.18 µM) with S. pneumoniae (setting [9]); 0.25 µg/mL (≈ 0.261 µM) in the assay on S. pneumoniae (setting [10]); less than 0.0313 µg/mL with S. pyogenes (setting [11]); 2 µg/mL (≈ 2.09 µM) in the assay on S. pyogenes (setting [12]). Besides, the MIC in the assay on E. faecalis (setting [13]) was 16 µg/mL (≈ 16.7 µM); with E. faecalis (setting [14]), greater than 32 µg/mL; in the assay with E. coli (setting [15]) it was 32 µg/mL (≈ 33.5 µM); in the assay on E. coli (setting [16]) it was 32 µg/mL (≈ 33.5 µM); with A. baumannii (setting [17]), greater than 32 µg/mL; with A. baumannii (setting [18]), greater than 32 µg/mL. The MIC in the assay on K. pneumoniae (setting [19]) was 8 µg/mL (≈ 8.37 µM); in the assay on K. pneumoniae (setting [20]) it was greater than 32 µg/mL; in the assay with P. aeruginosa it was greater than 32 µg/mL; in the assay with H. influenzae (setting [21]) it was 16 µg/mL (≈ 16.7 µM); with H. influenzae (setting [22]) it was 8 µg/mL (≈ 8.37 µM).
On to `CC[C@H]1OC(=O)[C@H](C)C(=O)[C@H](C)[C@@H](O[C@@H]2OC(CNC(=O)c3ccccc3)CC(N(C)C)C2O)[C@](C)(OC)C[C@@H](C)CN[C@H](C)[C@H]2N(CCCCn3cc(-c4cccc(N)c4)nn3)C(=O)O[C@]12C` (stereo partly drawn) [FSM-21880], for which the MIC in the assay with S. aureus (setting [1]) is 32 µg/mL (≈ 33.8 µM); with S. aureus (setting [2]) it was greater than 32 µg/mL; in the assay with S. aureus (setting [3]), greater than 32 µg/mL; with S. aureus (setting [4]) it was greater than 32 µg/mL; with S. aureus (setting [5]), greater than 32 µg/mL; in the assay on S. pneumoniae (setting [6]) it was less than 0.0313 µg/mL. Besides, the MIC in the assay with S. pneumoniae (setting [7]) is 1 µg/mL; in the assay on S. pneumoniae (setting [8]), less than 0.0313 µg/mL; with S. pneumoniae (setting [9]) it was 2 µg/mL (≈ 2.11 µM); in the assay on S. pneumoniae (setting [10]), 0.0625 µg/mL (≈ 0.066 µM); with S. pyogenes (setting [11]) it was less than 0.0313 µg/mL; in the assay with S. pyogenes (setting [12]), 1 µg/mL (≈ 1.06 µM). Further, the MIC is 4 µg/mL (≈ 4.22 µM) in the assay with E. faecalis (setting [13]); greater than 32 µg/mL with E. faecalis (setting [14]); 16 µg/mL (≈ 16.9 µM) in the assay on E. coli (setting [15]); 32 µg/mL (≈ 33.8 µM) with E. coli (setting [16]); greater than 32 µg/mL with A. baumannii (setting [17]); 32 µg/mL (≈ 33.8 µM) with A. baumannii (setting [18]). Also, the MIC was 8 µg/mL (≈ 8.45 µM) in the assay with K. pneumoniae (setting [19]); greater than 32 µg/mL with K. pneumoniae (setting [20]); greater than 32 µg/mL in the assay on P. aeruginosa; 4 µg/mL (≈ 4.22 µM) in the assay on H. influenzae (setting [21]); 4 µg/mL (≈ 4.22 µM) in the assay with H. influenzae (setting [22]).
